Data set [1] can be described thus: Plasma levels of Compound 2 after intravenous or topical administration to rats (LC/MS/MS). It counts as in vivo. As to conditions: rat. Here is the method:
B/PK was characterized following intravenous administration to rats. Following drug administration, blood samples (2-300 μL) were withdrawn from the jugular vein catheter at regular intervals after dosing (5, 15, 30, 45 minutes and 1, 2, 4, 8, 16, and 24 hours) into K3-EDTA anti-coagulated sampling tubes. Plasma was obtained by centrifugation and stored at −80° C. until analysis. The heart, lung and spleen were harvested in order to determine the tissue distribution of Compound 2. Cumulative urinary samples were collected over 24 hours post-dose and stored at −80° C. until analysis. B/PK was characterized following topical administration. Following drug administration to rats, eyes were enucleated, irrigated with saline, and vitreous humor aspirated from the inner region of the vitreous chamber using an 18-gauge needle. Blood samples were obtained simultaneously in order to determine the extent of systemic exposure following topical administration. Vitreous humor and blood samples were obtained at regular intervals after dosing. Time points were determined based upon concentration time profiles obtained following intravenous administration of Compound 2. For data analyses B/PK parameters were derived from the obtained plasma, vitreous humor, urine and feces concentration data by standard non-compartmental analysis. Terminal half-life was determined as the ratio of ln 2 divided by λz, the negative of the slope of the linear regression of the natural log concentration vs. time profile during the terminal phase. Systemic and ocular exposure was determined as plasma or ocular area under the concentration-time curve (AUC) using the trapezoidal rule. Compound 2 concentration determination and metabolite profiling is conducted using a validated LC/MS/MS assay based on the methodology described (14-15). The LC-MS/MS system comprises a Shimadzu HPLC system (Kyoto, Japan), API-4000 Q Trap tandem mass spectrometer (Foster City, Calif., USA) equipped with a turbo ion-spray and a HTC-PAL autosampler (Leap Technologies, Carrboro, N.C., USA).

In data set [2] the test system is retinal capillaries of diabetic rats. Nature of the data set: Quantitation of acellular (degenerate) capillaries in trypsin-digested retinal vasculature. Type of data set: in vivo, rat. As to conditions: 1 mM eye drops, 8 months of diabetes, hydrochloride. Here is the method: For the acellular capillary counts, retinas from an eye of control, diabetic, and diabetic+2 were used. Eyes were enucleated and placed into 10% buffered formalin for 5 days. The retina was dissected in 3% crude trypsin solution (Difco Bacto Trypsin 250, Detroit, Mich.) containing 0.2 M sodium fluoride at 37 C for 2 hours (5). The neural retina was gently brushed away and the remaining retinal vascular tree was dried onto a glass slide. Once the isolated retinal vascular tree was dried onto the glass slide, the slide was stained with hematoxylin-periodic acid-Schiff. Degenerate (acellular) capillaries were counted in mid-retina in six to seven fields evenly spaced around the retina. Degenerate capillaries were identified as capillary-sized tubes having no nuclei anywhere along their length. Degenerate capillaries were counted only if their average diameter was at least 20% of that found in surrounding healthy capillaries (6-7).

Another data set deals with Akt (Ser 473). Briefly: Western blot of phosphorylated Akt to total Akt in rat retina. The following applies: diabetic rats, daily 1 mM, retinal lysates. It counts as in vivo. From the text: The other eye from each animal was used for protein analyses for inflammatory markers and insulin receptor signaling. Western blotting was done as described (9). Antibodies used were total insulin receptor beta (1:500, Cellular Signaling, Danvers, Mass.), phosphorylated insulin receptor beta (Tyr 1150/1151, 1:500, Cellular Signaling, Danvers, Mass.), total Akt (1:500, Cellular Signaling, Danvers, Mass.), and phosphorylated Akt (Ser 473, 1:500, Cellular Signaling, Danvers, Mass.). For analyses of the data, mean densitometry values were obtained using the Kodak 2.0 software. The ratio of phosphorylated protein was compared to levels of total protein.
For orientation: A western blot detects proteins with antibodies after separation by electrophoresis.

A further data set relates to Rat Müller cells (rMC-1). Briefly: TNFalpha and cleaved caspase 3 ELISA in Müller cells cultured in high glucose. Type of data set: cell-based. Here is the method: Human retinal endothelial cells (HREC) were purchased from Cell Systems (Kirkland, Wash.) and grown in either basal (5 mM glucose) or growth (25 mM glucose) media. Both media is supplemented with 10% FBS and antibiotics. The day prior to experiments, cells are serum-starved for 18-24 hours. Rat Müller cells (rMC-1) were grown in DMEM medium with 5 mM glucose or 25 mM glucose. Media was supplemented with 10% FBS and antibiotics. Cells were serum starved prior to all experiments for 18-24 hours.
Human retinal endothelial cells (HREC) and rat Muller cells (rMC-1) in both glucose conditions were treated with Compound 2 at doses of 10 nM, 50 nM, 100 nM, 1 μM, and 10 μM of Compound 2. Cells of each type were grown in medium containing L-glucose to control for changes in osmolarity. 10 μM isoproterenol was also used for each condition as a positive control. Müller cells were treated for 1 hour and 24 hours, while HREC were treated for 30 and 60 minutes.
Following treatment, cells were collected into lysis buffer containing protease and phosphatase inhibitors. ELISA analyses for TNFalpha, cleaved caspase 3, and PKA were done according to manufacturers instructions. Data is compared against non-treated cells and cells at the various doses. A Kruskal-Wallis test is done, with a Dunn's test for secondary analyses. […] The dose that decreases TNFalpha and caspase 3 levels also increases PKA activity.
Background: In an ELISA, binding on a coated surface is turned into a signal by an enzyme label.

The mark [3] stands for this setting: Müller cells in high glucose, 50 nM.

Entries after “also recorded” stand apart in the source; their conditions may differ.

On to `COc1cc(CCNC[C@H](O)c2ccc(O)c(O)c2)cc(OC)c1OC.Cl` (single isomer, unassigned) [Compound 2, 4-[1-hydroxy-2-(1-ethylamino-3-,4-,5-trimethoxyphenyl)ethyl]benzene-1,2-diol hydrochloride], for which the concentration at 45 min in data set [1] (Lewis, plasma, over 45 minutes, dose and route not stated) is approximately 6 ng/mL. Moreover, the concentration at 1 h in data set [1] (plasma, intravenous or topical, 10 mg/kg, limit of detection, read-out: plasma level after 1 hour) is less than 2.5 ng/mL. Moreover, the “time of clearance from plasma” value in data set [1] (intravenous, 1 mg/kg) was less than 1 h. In data set [1] (intravenous, 10 mg/kg), the plasma concentration is approximately 1000 ng/mL and the “time of clearing from plasma” value was not above 30 min. Further, the “plasma concentration at the 2 time points with detection” value in data set [1] (topical, 10 mg/kg) was approximately 80 ng/mL. The “detection in plasma after topical delivery” value in data set [1] (topical, therapeutic dose 1 mM or 1 mg/kg, hydrochloride) was “did not result in detectable Compound 2 in plasma; also recorded: below the limits of detection; also recorded: not detected”. The “Plasma concentration at start of decline” value in data set [1] (dose and route not stated) is reported as “about 100 ng/ml”. Besides, the “numbers of degenerate capillaries” value in data set [2] is given as “significantly reduced numbers of degenerate capillaries; also recorded: significantly reduce numbers of degenerate capillaries to levels similar to controls”. Further, the “ratio of phosphorylated Akt to total Akt” value with Akt (Ser 473) is listed as “maintained the ratio of phosphorylated Akt at levels similar to control values”. Further, in the data set with Rat Müller cells (rMC-1) (setting [3]), the “reduction of TNFalpha levels compared to not-treated cells” value stood at 19% and the “reduction of caspase 3 compared to not-treated cells” value is reported as 55%. Moreover, in the data set with Rat Müller cells (rMC-1) (Müller cells in high glucose, 50 nM, vs non-treated), the “TNFalpha levels, in words” value is listed as “significantly reduced”. For the same compound, in the data set on Rat Müller cells (rMC-1) (Müller cells in high glucose, 50 nM, vs non-treated, hydrochloride), the “cleaved caspase 3 levels, in words” value is reported as “significantly decreased caspase 3 levels in Müller cells at the 24-hour time point; also recorded: significantly reduced levels of cleaved caspase 3”. In the data set on Rat Müller cells (rMC-1) (Müller cells, 50 nM Compound 2 vs. 10 μM isoproterenol), the “dose for blockade of apoptosis and TNFalpha activity compared with isoproterenol” value is given as “significantly lower dose”.

(Values after patent publication US20120329879A1, “BETA-ADRENERGIC RECEPTOR AGONISTS AND USES THEREOF” (THE UNIVERSITY OF TENNESSEE RESEARCH FOUNDATION, priority 2010, published 2012).)
